Assays:
[1] = system: L-dried matter of Synechococcus sp. NIES-969; assay: Detection of chemical substances by delayed luminescence (DFI) of rehydrated L-dried matter; assay type: cell-based
Procedure: (§1) Various kinds of the L-dried matter obtained in the above-described cryo vial, and test water (water containing the chemical substances listed below at the concentrations (w/v) shown in Table 7) were prepared.
(§2) (metal mixed solution which was prepared by simulation based on formulation of a rock eluate from a core sample collected during a survey voyage of “Chikyu” by the Japan Agency for Marine-Earth Science and Technology; mainly containing lead and zinc (Yamagishi et al. Ecotoxicology (2018) 27:1303-1309)) • Copper • Zinc • Lead • Arsenic: in NIES-35, NIES-969, and NIES-2885, test water containing As(V) at 1 ppm (w/v) was also used for examination.
(§3) In a case of tests using freshwater algae, distilled water was used as the test water or control water, and in a case of tests using marine algae, filtered and sterilized seawater was used as the test water or control water.
(§4) Using a cuvette as a measurement container, 100 μL of the above-described cell suspension was dried to obtain 1 unit of the L-dried matter, and resuspended (rehydrated) in 3.5 mL of test water or control water.
(§5) After the rehydration, the L-dried matter and the test water or control water were rapidly and thoroughly mixed by pipetting to obtain a measurement sample (measurement object).
(§6) The sample was set in a weak luminescence measurement device (manufactured by Hamamatsu Photonics K.K., weak luminescence coefficient device, Type-7100). After exposure with excitation light from a light source attached to the device, delayed luminescence was measured immediately after a point of time of the rehydration (within 30 seconds), 15 minutes later, 30 minutes later, 60 minutes later, and 90 minutes later. The measurement time for each delayed luminescence was set to 10 seconds.
(§7) The sum of amounts of delayed luminescence (photon count) measured over 10 seconds was calculated and defined as the delayed fluorescence integral (DFI). In addition, for the sample after the rehydration, an absorbance at a wavelength of 600 nm with an optical path length of 1 cm was simultaneously measured. The DFI value per cell number of the L-dried matter was obtained by dividing the DFI by the value (DFI/OD600).

[2] = system: L-dried matter of Prochlorococcus sp. NIES-2885; assay: as above; assay type: cell-based
Procedure: as §1, §2, §3, §4, §5, §6, §7

[3] = system: L-dried matter of Raphidocelis subcapitata NIES-35; assay: as above; assay type: cell-based
Procedure: as §1, §2, §3, §4, §5, §6, §7

[4] = system: L-dried matter of Cyanobium sp. NIES-981; assay: as above; assay type: cell-based
Procedure: as §1, §2, §3, §4, §5, §6, §7

[5] = system: L-dried matter of NIES-35; assay: Detectable concentration by significant difference test, 15 min exposure of L-dried matter; assay type: cell-based, Raphidocelis subcapitata; conditions: exposed for 15 minutes
From the text: The concentration of HA corresponds to a 100 million-fold dilution of a commercially available stock solution.

[6] = system: L-dried matter of NIES-981 on filter; assay: Detection test for DCMU using L-dried matter on a filter; assay type: cell-based, Cyanobium sp.; conditions: DCMU 1 μM; 5 minutes after exposure; *P<0.01, N=4
Procedure: 25 to 50 mL of a culture solution of NIES-981 was passed through a filter (Whatman GF/F glass fiber filter paper (diameter: 47 mm)) set in a filtration unit, capturing the cells on the filter. After the filtration, 1 mL of a protective medium (Table 6) was immediately added dropwise onto the filter. The filter on which the cells were captured was subjected to low-temperature vacuum drying for 1 to 2 hours using a low-temperature vacuum drying device (manufactured by Forest Technology Systems Ltd., FLEXI-DRY) capable of performing L-drying. Subsequent steps were performed in the same manner as in the preparation of the L-dried sample in the vial described above, thereby obtaining L-dried matter of algae on the filter (FIG. 8).
The L-dried matter obtained on the filter was exposed to seawater or test water containing DCMU at a concentration of 1 μM, and the delayed luminescence was measured 5 minutes after the exposure.

[7] = system: L-dried matter of NIES-35; assay: Quality evaluation of stored L-dried matter with DCMU; assay type: cell-based, Raphidocelis subcapitata; conditions: DCMU 1 μM, after 15 minutes
Procedure: The L-dried matter stored at 4° C. for 2 weeks was compared with the L-dried matter stored at 37° C. for 2 weeks (accelerated deterioration product). In each case, DCMU was added to the L-dried matter of NIES-35 at the same time as the rehydration, such that the final concentration was 1 μM (DCMU addition group), and the delayed luminescence after 15 minutes was measured. In addition, the delayed luminescence was measured in the control (non-addition group) in which DCMU was not added, following the same procedure.

[8] = system: same type of biocyanobacteria; assay: 24-hour exposure test on the same type of cyanobacteria; assay type: cell-based; conditions: different bioassay method
Procedure: In a case where the half-effective concentration (EC50) was calculated, the zinc was 0.05 ppm (w/v) (FIG. 11) and the Cy metal mixed solution was 0.7% (w/v) (FIG. 12). Although it is not possible to simply compare the values because the values were obtained by different bioassay methods, the EC50 value during the zinc exposure was 0.07 ppm in a case where the 24-hour exposure test was performed on the same type of biocyanobacteria, and the EC50 value was similar to this value.

[9] = system: L-dried matter of NIES-981; assay: Estimation of half-effective concentration (EC50) from delayed luminescence dose-response curve; assay type: cell-based, Cyanobium sp.; conditions: exposed simultaneously with rehydration; delayed luminescence after 15 minutes
Procedure: A dose-response curve of the L-dried matter with respect to a representative metal was created, and a half-effective concentration (EC50) was estimated. For the L-dried matter of NIES-981, zinc at 0 to 1 ppm (w/v) or Cy metal mixed solution at 0 to 10% (w/v) was exposed simultaneously with rehydration. After 15 minutes, the delayed luminescence was measured, and a dose-response curve was created.

[10] = system: L-dried matter of NIES-35; assay: Detection test for ammonia nitrogen using L-dried matter; assay type: cell-based, Raphidocelis subcapitata; conditions: 60 minutes after addition; T-test, P<0.05, N=3
Procedure: To the L-dried matter of NIES-35 obtained in the cryo vial, a sample containing ammonia nitrogen at a concentration shown in FIG. 10 was added, and the delayed luminescence was measured 60 minutes after the addition.

[11] = Pb^2+ 1 ppm, first value → later value
[12] = Zn^2+ 0.5 ppm, first value → later value

[Cu+2] [Cu^2+, Copper]
comparison with control group (DFI value) ([1]; Cu^2+ 1 ppm): lower | comparison with control group (DFI value) ([2]; Cu^2+ 1 ppm): lower | comparison with control group (DFI value) ([3]; Cu^2+ 1 ppm): lower | comparison with control group (DFI value) ([4]; Cu^2+ 1 ppm): higher

CN(C)C(=O)Nc1ccc(Cl)c(Cl)c1 [DCMU, 3-(3,4-dichlorophenyl)-1,1-dimethylurea, reference compound]
detectable concentration (significant difference test) [5]: ≤ 0.1 µM | detectable concentration (significant difference test) ([5]; conversion of 0.1 μM): approximately 0.02 ppm | comparison with control group (DFI value) ([1]; DCMU 1 μM): higher | comparison with control group (DFI value) ([2]; DCMU 1 μM, first value → later value): higher | comparison with control group (DFI value) ([3]; DCMU 1 μM): higher | comparison with control group (DFI value) ([4]; DCMU 1 μM): higher | amount of delayed luminescence, DCMU versus seawater [6]: significant difference | delayed luminescence, DCMU-added group versus non-addition group ([7]; L-dried matter stored at 4° C. for 2 weeks): a difference was observed | delayed luminescence, DCMU-added group versus non-addition group ([7]; L-dried matter stored at 37° C. for 2 weeks): no significant difference was observed

NO [HA, Hydroxylamine, reference compound]
detectable concentration (significant difference test) [5]: ≤ 0.0005 µM | comparison with control group (DFI value) ([1]; HA 50 μM): lower | comparison with control group (DFI value) ([2]; HA 50 μM): lower | comparison with control group (DFI value) ([3]; HA 50 μM): lower | comparison with control group (DFI value) ([4]; HA 50 μM): lower

[Pb+2] [Pb^2+, Lead]
comparison with control group (DFI value) [1, 11]: lower | comparison with control group (DFI value) [2, 11]: lower | comparison with control group (DFI value) ([3]; Pb^2+ 1 ppm): higher | comparison with control group (DFI value) ([4]; Pb^2+ 1 ppm): higher

[Zn+2] [Zn^2+, Zinc]
EC50 value during the zinc exposure [8]: 0.07 ppm | comparison with control group (DFI value) [1, 12]: lower | comparison with control group (DFI value) ([1]; Zn^2+ 1 ppm): lower | comparison with control group (DFI value) [2, 12]: lower | comparison with control group (DFI value) ([2]; Zn^2+ 1 ppm, first value → later value): lower | comparison with control group (DFI value) ([3]; Zn^2+ 0.5 ppm): higher | comparison with control group (DFI value) ([3]; Zn^2+ 1 ppm): higher | comparison with control group (DFI value) ([4]; Zn^2+ 0.5 ppm): higher | comparison with control group (DFI value) ([4]; Zn^2+ 1 ppm): higher | half-effective concentration (EC50) [9]: 0.05 ppm (w/v)

ammonia nitrogen [NH4—N]
concentration at which a significant difference in the amount of delayed luminescence was confirmed [10]: ≥ 10 mg/L

From patent US20250198977A1, “DETECTION METHOD, DRIED ALGAE MANUFACTURING METHOD, DRIED ALGAE, AND DRIED ALGAE QUALITY MANAGEMENT METHOD” (priority 2022, published 2025)
